Where “and” joins values, the source holds several entries; their conditions need not be identical. Equal entries are not always repeated.
Columns and labels:
FimH-CRD [1] = target: T1, FimH-CRD (Escherichia coli, UniProt P08191); assay: Competitive binding assay by fluorescence polarization, assay 1 (compounds prepared by manual dilution); parameters: species or system E. coli
T1 construct: The first 177 amino acids of the FimH protein are expressed as a fusion protein; thrombin tag (printed as 'fusion protein with thrombin') (cleaved yes); made in house; host or cells: bacteria (pET21b plasmid)
Description: (§1) The first 177 amino acids of the FimH protein are expressed as a fusion protein with thrombin in a pET21b plasmid in bacteria. This FimH protein sequence contains the carbohydrate recognition domain (CRD) and shall be termed FimH-CRD. Following bacterial expression of the protein, the FimH-CRD protein is purified to homogeneity and the thrombin tag removed by protease cleavage. A competitive binding assay by fluorescence polarization is performed using 5 nM of the Alexa 647 mannoside probe and 60 nM of the FimH-CRD. The samples are assayed in a low volume 384 well microtiter plate in a final volume of 20 μl. The final assay buffer conditions are the following, 50 mM Tris-Cl, ph 7.0, 100 mM NaCl, 1 mM EDTA, 5 mM β-mercaptoethanol, 0.05% BSA and 2.5% DMSO. Two assays are performed for FimH, termed assay 1 or assay 2. The assay conditions are the same for both assays except the following: assay 1 has compounds prepared by manual dilution in a serial dilution factor with 12-point dose response while assay 2 has compounds prepared by a robotics system also through a serial dilution factor (12 point dose response) and initially prepared in duplicate in 384 well-Corning polypropylene round bottom plates. The assay 2 plates have compound which is then frozen and must be thawed prior to use. Initially the Alexa 647 probe and the FimH-CRD are added to the assay buffer and then 0.5 μl of test compound (assay 1 or 2) between 0.4 nM to 75 μM final concentration are added (12 point titration with 3-fold serial dilution). Control wells for the Alexa 647 probe are prepared with the same conditions except for the addition of the FimH-CRD protein. Plates are then incubated for 5 hrs at room temperature in the dark and under humid conditions to prevent drying. Plates are read using the SpectraMax Paradigm multi-mode plate reader and the appropriate fluorescent polarization detection cartridge (Alexa-647).
(§2) Alexa 647 mannoside probe is prepared using the similar procedure reported for FAM mannoside (Han, Z. et. al., 2010, J. Med. Chem., 53, 4779) and is described in the scheme below.
(§3) To a blue colored stirred solution of (2S,3S,4S,5S,6R)-2-(4-aminobutoxy)-6-(hydroxymethyl)tetrahydropyran-3,4,5-triol (2.21 mg, 0.009 mmol) and the (2E)-2-[(2E,4E)-5-[3,3-dimethyl-5-sulfonato-1-(3-sulfonatopropyl)indol-1-ium-2-yl]penta-2,4-dienylidene]-3-[6-(2,5-dioxopyrrolidin-1-yl)oxy-6-oxo-hexyl]-3-methyl-1-(3-sulfonatopropyl)indoline-5-sulfonate (Potassium Ion (3)) (4.9 mg, 0.0044 mmol) in DMF (44 μL) is added Et3N (5.4 mg, 7.0 μL, 0.053 mmol) at RT. The solution is stirred at room temperature over night, concentrated, dissolved in water and purified on 12 g C-18 silica gel cartridge on Isolera system using acetonitrile in water (0 to 40%, 10 CV) and followed by lyophilization to afford Alexa 647 mannoside probe (3.3 mg, 34%) as deep blue solid.
(§4) The Kd values of the compounds are determined from dose response curves using twelve concentrations per compound in duplicate. Curves are fitted to data points using Fluorescence Polarization competitive displacement analysis, and Kds are interpolated from the resulting curves using GraphPad Prism software, version […] (GraphPad software Inc., San Diego, Calif., USA).

[2] = tested on: bacterial strain LF82 binding to the glycoprotein BSA-(Mannose)3; assay: Bacterial Binding Assay (BBA); type: cell-based, Escherichia coli; conditions: read-out: Bacterial Binding Assay IC50, LF82/Luciferase strain binding to BSA-(Man)3 coated plates, luminescence
Method in brief: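 Inhibition of LF82/luciferase E. coli adhesion is read as luminescence after washing off unbound cells. Compound and bacteria (10^7 per well) are co-incubated 40-75 min at room temperature on wells coated with 0.5-2 μg/mL BSA-(Man)3, with BSA-only wells as background; IC50 values derived.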

FimH-CRD [3] = target: T1, FimH-CRD; assay: Competitive binding assay by fluorescence polarization, assay 2 (compounds prepared by a robotics system, plates frozen and thawed); parameters: species or system E. coli; conditions: Assay 2 Kd, 5 nM Alexa 647 mannoside probe, 60 nM FimH-CRD, replicate values in one cell
Description: as §1, §2, §3, §4

[4] = Assay 1 Kd, 5 nM Alexa 647 mannoside probe, 60 nM FimH-CRD, replicate values in one cell
[5] = read-out: Assay 1 Kd, 5 nM Alexa 647 mannoside probe, 60 nM FimH-CRD, replicate values in one cell

T1 sequence (P08191 22-177): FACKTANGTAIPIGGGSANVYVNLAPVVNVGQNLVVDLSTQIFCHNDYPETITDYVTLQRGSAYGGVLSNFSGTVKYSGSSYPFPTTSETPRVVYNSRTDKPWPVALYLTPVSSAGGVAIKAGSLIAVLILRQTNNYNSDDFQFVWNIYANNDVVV

OC[C@H]1O[C@H](n2cc(-c3cccc(-c4cn([C@H]5O[C@H](CO)[C@@H](O)[C@H](O)[C@@H]5O)nn4)c3)nn2)[C@@H](O)[C@@H](O)[C@@H]1O [Compound 19, ((2R,3S,4S,5S,6S)-2-(Hydroxymethyl)-6-[4-[3-[1-[(2S,3S,4S,5S,6R)-3,4,5-trihydroxy-6-(hydroxymethyl)tetrahydropyran-2-yl]triazol-4-yl]phenyl]triazol-1-yl]tetrahydropyran-3,4,5-triol)]
Kd (FimH-CRD [1]; [4]): 0.006 µM and < 0.005 µM | IC50 [2]: 0.43 µM

O=C(C[C@H]1O[C@H](CO)[C@@H](O)[C@H](O)[C@@H]1O)Nc1cccc(NC(=O)C[C@H]2O[C@H](CO)[C@@H](O)[C@H](O)[C@@H]2O)c1 [Compound 48, (2-[(2R,3S,4R,5S,6R)-3,4,5-Trihydroxy-6-(hydroxymethyl)tetrahydropyran-2-yl]-N-[3-[[2-[(2R,3S,4R,5S,6R)-3,4,5-trihydroxy-6-(hydroxymethyl)tetrahydropyran-2-yl]acetyl]amino]phenyl]acetamide)]
Kd (FimH-CRD [3]): 0.079 µM and 0.05 µM and 0.063 µM

OC[C@H]1O[C@H](c2cccc([C@H]3O[C@H](CO)[C@@H](O)[C@H](O)[C@@H]3O)c2)[C@@H](O)[C@@H](O)[C@@H]1O [Compound 2]
Kd (FimH-CRD [1]; [4]): 0.125 µM and 0.062 µM | IC50 [2]: 4.95 µM

COC(=O)c1cc(/C=C/C[C@H]2O[C@H](CO)[C@@H](O)[C@H](O)[C@@H]2O)ccc1/C=C/C[C@H]1O[C@H](CO)[C@@H](O)[C@H](O)[C@@H]1O [Compound 26, (Methyl 2,5-bis[(E)-3-[(2R,3S,4R,5S,6R)-3,4,5-trihydroxy-6-(hydroxymethyl)tetrahydropyran-2-yl]prop-1-enyl]benzoate)]
Kd (FimH-CRD [1]; [4]): < 0.005 µM | Kd (FimH-CRD [1]; [5]): < 0.005 µM | IC50 [2]: 0.85 µM

OC[C@H]1O[C@H](C/C=C/c2ccc(/C=C/C[C@H]3O[C@H](CO)[C@@H](O)[C@H](O)[C@@H]3O)c(Cl)c2)[C@@H](O)[C@@H](O)[C@@H]1O [Compound 29, ((2R,3S,4R,5S,6R)-2-[(E)-3-[3-Chloro-4-[(E)-3-[(2R,3S,4R,5S,6R)-3,4,5-trihydroxy-6-(hydroxymethyl)tetrahydropyran-2-yl]prop-1-enyl]phenyl]allyl]-6-(hydroxymethyl)tetrahydropyran-3,4,5-triol)]
Kd (FimH-CRD [1]; [4]): 0.006 µM and 0.008 µM | IC50 [2]: 1.3 µM

CC(=O)N[C@@H]1[C@@H](O)[C@H](O)[C@@H](CO)O[C@H]1n1cc([C@H]2O[C@H](CO)[C@@H](O)[C@H](O)[C@@H]2O)nn1 [Compound 45, (N-[(2R,3R,4R,5S,6R)-4,5-Dihydroxy-6-(hydroxymethyl)-2-[4-[(2R,3S,4R,5S,6R)-3,4,5-trihydroxy-6-(hydroxymethyl)tetrahydropyran-2-yl]triazol-1-yl]tetrahydropyran-3-yl]acetamide)]
Kd (FimH-CRD [3]): 0.707 µM and 0.576 µM and 0.558 µM and 0.591 µM

Cc1cc(/C=C/C[C@H]2O[C@H](CO)[C@@H](O)[C@H](O)[C@@H]2O)ccc1/C=C/C[C@H]1O[C@H](CO)[C@@H](O)[C@H](O)[C@@H]1O [Compound 27, ((2R,3S,4R,5S,6R)-2-(Hydroxymethyl)-6-[(E)-3-[3-methyl-4-[(E)-3-[(2R,3S,4R,5S,6R)-3,4,5-trihydroxy-6-(hydroxymethyl)tetrahydropyran-2-yl]prop-1-enyl]pheny]allyl]tetrahydropyran-3,4,5-triol)]
Kd (FimH-CRD [1]; [4]): < 0.005 µM | Kd (FimH-CRD [1]; [5]): < 0.005 µM | IC50 [2]: 0.8 µM

OC[C@H]1O[C@H](C/C=C/c2ccc(/C=C/C[C@H]3O[C@H](CO)[C@@H](O)[C@H](O)[C@@H]3O)c(F)c2)[C@@H](O)[C@@H](O)[C@@H]1O [Compound 28]
Kd (FimH-CRD [1]; [4]): < 0.005 µM | Kd (FimH-CRD [1]; [5]): < 0.005 µM | IC50 [2]: 0.77 µM

O=C(C[C@H]1O[C@H](CO)[C@@H](O)[C@H](O)[C@@H]1O)Nc1ccc(NC(=O)C[C@H]2O[C@H](CO)[C@@H](O)[C@H](O)[C@@H]2O)cc1 [Compound 43, (2-[(2R,3S,4R,5S,6R)-3,4,5-Trihydroxy-6-(hydroxymethyl)tetrahydropyran-2-yl]-N-[4-[[2-[(2R,3S,4R,5,6R)-3,4,5-trihydroxy-6-(hydroxymethyl)tetrahydropyran-2-yl]acetyl]amino]phenyl]acetamide)]
Kd (FimH-CRD [1]; [4]): 0.02 µM and 0.027 µM

COc1cc(/C=C/C[C@H]2O[C@H](CO)[C@@H](O)[C@H](O)[C@@H]2O)c(OC)cc1/C=C/C[C@H]1O[C@H](CO)[C@@H](O)[C@H](O)[C@@H]1O [Compound 30, ((2R,3S,4R,5S,6R)-2-[(E)-3-[2,5-Dimethoxy-4-[(E)-3-[(2R,3S,4R,5S,6R)-3,4,5-trihydroxy-6-(hydroxymethyl)tetrahydropyran-2-yl]prop-1-enyl]phenyl]allyl]-6-(hydroxymethyl)tetrahydropyran-3,4,5-triol)]
Kd (FimH-CRD [1]; [4]): 0.007 µM and < 0.005 µM | IC50 [2]: 0.3 µM

O=C(NCCCCCCCNC(=O)c1cccc([C@H]2O[C@H](CO)[C@@H](O)[C@H](O)[C@@H]2O)c1)c1cccc([C@H]2O[C@H](CO)[C@@H](O)[C@H](O)[C@@H]2O)c1 [Compound 13, (R,R,S,R,S)-N,N′-(Heptane-1,7-diyl)bis(3-((2R,3S,4R,5S,6R)-3,4,5-trihydroxy-6-(hydroxymethyl)tetrahydro-2H-pyran-2-yl)benzamide)]
Kd (FimH-CRD [1]; [4]): 0.017 µM and 0.012 µM

OC[C@H]1O[C@H](c2cc([C@H]3O[C@H](CO)[C@@H](O)[C@H](O)[C@@H]3O)cc(C(F)(F)F)c2)[C@@H](O)[C@@H](O)[C@@H]1O [Compound 3]
Kd (FimH-CRD [1]; [4]): 0.051 µM and 0.04 µM

O=C(NCCNC(=O)c1cccc([C@H]2O[C@H](CO)[C@@H](O)[C@H](O)[C@@H]2O)c1)c1cccc([C@H]2O[C@H](CO)[C@@H](O)[C@H](O)[C@@H]2O)c1 [Compound 8, (R,R,S,R,S)-N,N′-(Ethane-1,2-diyl)bis(3-((2R,3S,4R,5S,6R)-3,4,5-trihydroxy-6-(hydroxymethyl)tetrahydro-2H-pyran-2-yl)benzamide)]
Kd (FimH-CRD [1]; [4]): 0.016 µM and 0.019 µM

OC[C@H]1O[C@H](C/C=C/c2ccc(/C=C/C[C@H]3O[C@H](CO)[C@@H](O)[C@H](O)[C@@H]3O)cc2)[C@@H](O)[C@@H](O)[C@@H]1O [Compound 24, ((2R,3S,4R,5S,6R)-2-(Hydroxymethyl)-6-[(E)-3-[4-[(E)-3-[(2R,3S,4R,5S,6R)-3,4,5-trihydroxy-6-(hydroxymethyl)tetrahydropyran-2-yl]prop-1-enyl]phenyl]allyl]tetrahydropyran-3,4,5-triol)]
Kd (FimH-CRD [1]; [4]): < 0.005 µM | Kd (FimH-CRD [1]; [5]): < 0.005 µM | IC50 [2]: 0.65 µM

N#Cc1cc(/C=C/C[C@H]2O[C@H](CO)[C@@H](O)[C@H](O)[C@@H]2O)ccc1/C=C/C[C@H]1O[C@H](CO)[C@@H](O)[C@H](O)[C@@H]1O [Compound 33, (2,5-Bis[(E)-3-[(2R,3S,4R,5S,6R)-3,4,5-trihydroxy-6-(hydroxymethyl)tetrahydropyran-2-yl]prop-1-enyl]benzonitrile)]
Kd (FimH-CRD [1]; [4]): < 0.005 µM | Kd (FimH-CRD [1]; [5]): < 0.005 µM | IC50 [2]: 0.39 µM

O=[N+]([O-])c1cc(/C=C/C[C@H]2O[C@H](CO)[C@@H](O)[C@H](O)[C@@H]2O)ccc1/C=C/C[C@H]1O[C@H](CO)[C@@H](O)[C@H](O)[C@@H]1O [Compound 32, ((2R,3S,4R,5S,6R)-2-(Hydroxymethyl)-6-[(E)-3-[3-nitro-4-[(E)-3-[(2R,3S,4R,5S,6R)-3,4,5-trihydroxy-6-(hydroxymethyl)tetrahydropyran-2-yl]prop-1-enyl]phenyl]allyl]tetrahydropyran-3,4,5-triol)]
Kd (FimH-CRD [1]; [4]): < 0.005 µM | Kd (FimH-CRD [1]; [5]): < 0.005 µM | IC50 [2]: 0.34 µM

CC(C)Oc1ccc([C@H]2O[C@H](CO)[C@@H](O)[C@H](O)[C@@H]2O)cc1[C@H]1O[C@H](CO)[C@@H](O)[C@H](O)[C@@H]1O [Compound 4]
Kd (FimH-CRD [1]; [4]): 0.068 µM and 0.096 µM

Reference: patent publication US11634447B2 (priority 2012, dated 2023)
